Where two headings read alike, the source gives them in different places.
Legend:
Type in all cases: binding
[1] = target: T1, His-mTRIM21 PRYSPRY (Mus musculus, UniProt Q62191); assay: SPR fragment screening and dose response, mouse TRIM21 PRY-SPRY
T1 construct: mouse TRIM21 PRY-SPRY domain (residues V291-M470, UniProt-ID: Q62191); made in house; host or cells: E. coli BL21(DE3)
T1 sequence (Q62191 291-470): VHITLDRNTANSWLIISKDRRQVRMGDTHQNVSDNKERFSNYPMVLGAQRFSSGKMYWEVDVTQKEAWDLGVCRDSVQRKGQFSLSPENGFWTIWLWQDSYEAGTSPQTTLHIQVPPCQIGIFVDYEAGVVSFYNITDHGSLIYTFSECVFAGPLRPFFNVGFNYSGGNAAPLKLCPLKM
Protocol: (§1) His-mTRIM21 PRYSPRY and His-SUMO-hTRIM21 PRY-SPRY were immobilized onto flow channels (FC) FC2, FC3, and FC4 of a Series S sensor chip NTA (Cytiva). […] Proteins (10–20 µg mL^−1 in HBS-P+) were injected at 10 µL min^−1 to achieve response levels of 3500–4300 RU for mTRIM21 and 3600–4000 RU for hTRIM21. Flow channel 1 (FC1) was used as a reference surface. Surface deactivation and nickel stripping were achieved using 1 M ethanolamine and 350 mM ethylenediaminetetraacetic acid (EDTA), respectively.
(§2) Fragment screening was conducted by injecting 500 µM fragments diluted in running buffer (HBS-P+ with 1 mM TCEP and 2% (v/v) dimethyl sulfoxide (DMSO)) over all flow-channels for 30 s at 30 µL/min^−1. To account for surface drift, 50 µM of a control compound (Suramin) was injected every 15 fragment injections, and blank injections were performed every 5 fragments. Responses were analyzed by blank subtraction, reference subtraction (FC1), solvent correction, molecular weight adjustment, and drift correction using Biacore T200 Evaluation Software v3.2.1. The binding threshold for fragment hits was set based on the Suramin-binding response level.
The data was solvent-corrected, reference-subtracted (FC1), and blank-subtracted using the T200 Evaluation Software v3.2.1. Sensorgrams were subsequently replotted using Graphpad v.9 software.

[2] = target: T2, human TRIM21 PRY-SPRY domain (Homo sapiens, UniProt P19474); assay: Differential scanning fluorimetry (DSF, ΔTm), human TRIM21 PRY-SPRY domain
T2 construct: Human TRIM21 PRY-SPRY domain (residues V287-I465, UniProt-ID: P19474); His6 (N, cleaved yes); SUMO (N, cleaved yes); made in house; host or cells: E. coli BL21(DE3)
Protocol: (§3) Briefly, recombinant murine and human TRIM21 PRY-SPRY domain at a concentration of 8 μM were mixed with 2 mM compound in their respective SEC buffer. SYPRO Orange (5000×, Invitrogen) was added as a fluorescence probe (1 µl per mL). Subsequently, temperature-dependent protein unfolding profiles were measured using the QuantStudio™ 5 realtime PCR machine (Thermo Fisher). Excitation and emission filters were set to 465 nm and 590 nm, respectively. The temperature was raised with a step rate of 3 °C per minute. Data points were analysed with the internal software (Thermal Shift SoftwareTM Version 1.4, Thermo Fisher) using the Boltzmann equation to determine the inflection point of the transition curve.

[3] = target: T3, murine TRIM21 PRY-SPRY domain (Mus musculus, UniProt Q62191); assay: Differential scanning fluorimetry (DSF, ΔTm), mouse TRIM21 PRY-SPRY domain
T3 construct: mouse TRIM21 PRY-SPRY domain (residues V291-M470, UniProt-ID: Q62191); made in house; host or cells: E. coli BL21(DE3)
T3 sequence (Q62191 291-470): T1 sequence (Q62191 291-470)
Protocol: as §3

[4] = target: T4, His-SUMO-hTRIM21 PRY-SPRY (Homo sapiens, UniProt P19474); assay: SPR fragment screening, human TRIM21 PRY-SPRY
T4 construct: Human TRIM21 PRY-SPRY domain (residues V287-I465, UniProt-ID: P19474); made in house; host or cells: E. coli BL21(DE3)
Protocol: as §1, §2

[5] = single dose 500 µM fragment, relative response, suramin reference threshold 100 relative RU

T4 sequence (P19474 287-465): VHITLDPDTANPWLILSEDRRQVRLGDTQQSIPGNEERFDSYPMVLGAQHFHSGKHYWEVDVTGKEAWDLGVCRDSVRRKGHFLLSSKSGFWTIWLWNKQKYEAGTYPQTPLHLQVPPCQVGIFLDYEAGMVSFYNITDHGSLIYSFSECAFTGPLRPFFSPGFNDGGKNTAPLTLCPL
T2 sequence (P19474 287-465): as above

CCC(=O)Nc1nc(C)cs1 [Fragment Z30820160]
SPR mTRIM21 (Response) [1]: 15.6
Tm-Shift hTRIM21 [2]: -0.2 °C
Tm-shift mTRIM21 [3]: -0.5 °C
SPR hTRIM21 (Response) [4]: 46.05

CN1CCOC(CNc2nccs2)C1 (stereo not drawn) [Fragment Z1002247062]
SPR mTRIM21 (Response) [1, 5]: 105
Tm-Shift hTRIM21 ([2]; 2 mM compound, 8 μM protein): -0.2 °C
Tm-shift mTRIM21 ([3]; 2 mM compound, 8 μM protein): -0.1 °C
SPR hTRIM21 (Response) [4, 5]: 20.86

COC1CN(S(=O)(=O)N2CCCC2)C1 [Fragment Z1343518214]
SPR mTRIM21 (Response) [1]: 38.32
Tm-Shift hTRIM21 [2]: 0.2 °C
Tm-shift mTRIM21 [3]: -0.1 °C
SPR hTRIM21 (Response) [4]: 34.32

COCC(=O)NCc1ccccc1 [Fragment Z31478538]
SPR mTRIM21 (Response) [1, 5]: 37.9
Tm-Shift hTRIM21 ([2]; 2 mM compound, 8 μM protein): -0.3 °C
Tm-shift mTRIM21 ([3]; 2 mM compound, 8 μM protein): -0.3 °C
SPR hTRIM21 (Response) [4, 5]: 38.23

CN(CC(=O)N1CCCCC1)S(C)(=O)=O [Fragment Z363071686]
SPR mTRIM21 (Response) [1]: 39.85
Tm-Shift hTRIM21 [2]: -0.2 °C
Tm-shift mTRIM21 [3]: -0.1 °C
SPR hTRIM21 (Response) [4]: 20.46

CC(O)c1cnn(C2CCCC2)c1 (stereo not drawn) [Fragment Z2004563941]
SPR mTRIM21 (Response) [1, 5]: 41.62
Tm-Shift hTRIM21 ([2]; 2 mM compound, 8 μM protein): 0 °C
Tm-shift mTRIM21 ([3]; 2 mM compound, 8 μM protein): -0.2 °C
SPR hTRIM21 (Response) [4, 5]: 39.09

CCC(NC)c1ccncc1 (stereo not drawn) [Fragment Z1250132788]
SPR mTRIM21 (Response) [1, 5]: 53.11
Tm-Shift hTRIM21 ([2]; 2 mM compound, 8 μM protein): -0.1 °C
Tm-shift mTRIM21 ([3]; 2 mM compound, 8 μM protein): 0 °C
SPR hTRIM21 (Response) [4, 5]: 50.74

CC(NS(C)(=O)=O)c1ccccc1Cl (stereo not drawn) [Fragment Z133729708]
SPR mTRIM21 (Response) [1, 5]: 60.52
Tm-Shift hTRIM21 ([2]; 2 mM compound, 8 μM protein): -0.7 °C
Tm-shift mTRIM21 ([3]; 2 mM compound, 8 μM protein): -0.8 °C
SPR hTRIM21 (Response) [4, 5]: 74.68

CC(=O)Nc1cc2c(cc1C)OCO2 [Fragment Z1635496816]
SPR mTRIM21 (Response) [1, 5]: 140.9
Tm-Shift hTRIM21 ([2]; 2 mM compound, 8 μM protein): 0.1 °C
Tm-shift mTRIM21 ([3]; 2 mM compound, 8 μM protein): 0 °C
SPR hTRIM21 (Response) [4, 5]: 148.8

CCOc1ccccc1N1CCNCC1.Cl [Fragment Z425387594]
SPR mTRIM21 (Response) [1]: 98.47
Tm-Shift hTRIM21 [2]: 0 °C
Tm-shift mTRIM21 [3]: -0.1 °C
SPR hTRIM21 (Response) [4]: 61.98

CC(=O)N1Cc2ccc(N)cc2C1 [Fragment Z1354416068]
SPR mTRIM21 (Response) [1, 5]: 104.9
Tm-Shift hTRIM21 ([2]; 2 mM compound, 8 μM protein): 0.1 °C
Tm-shift mTRIM21 ([3]; 2 mM compound, 8 μM protein): 0 °C
SPR hTRIM21 (Response) [4, 5]: 107.4

c1cc(NCC2CCCO2)ccn1 (stereo not drawn) [Fragment Z1267882044]
SPR mTRIM21 (Response) [1, 5]: 85.46
Tm-Shift hTRIM21 ([2]; 2 mM compound, 8 μM protein): -0.1 °C
Tm-shift mTRIM21 ([3]; 2 mM compound, 8 μM protein): 0 °C
SPR hTRIM21 (Response) [4, 5]: 39.64

CCc1nnc(NC(=O)C2CCCO2)s1 (stereo not drawn) [Fragment Z26823525]
SPR mTRIM21 (Response) [1, 5]: 54.46
Tm-Shift hTRIM21 ([2]; 2 mM compound, 8 μM protein): -0.4 °C
Tm-shift mTRIM21 ([3]; 2 mM compound, 8 μM protein): -0.2 °C
SPR hTRIM21 (Response) [4, 5]: 48.81

COC1CN(Cc2cncs2)CCC1C (stereo not drawn) [Fragment Z1787761777]
SPR mTRIM21 (Response) [1, 5]: -42.9
Tm-Shift hTRIM21 ([2]; 2 mM compound, 8 μM protein): -0.3 °C
Tm-shift mTRIM21 ([3]; 2 mM compound, 8 μM protein): -1.6 °C
SPR hTRIM21 (Response) [4, 5]: -50.75

O=C(O)COCc1ccccc1 [Fragment Z993967070]
SPR mTRIM21 (Response) [1]: 63.84
Tm-Shift hTRIM21 [2]: 0 °C
Tm-shift mTRIM21 [3]: -0.3 °C
SPR hTRIM21 (Response) [4]: 56.18
